This is an account of results in patent US8163702B2, “Treatment of melanoma” (SciClone Pharmaceuticals, Inc., priority 2006, dated 2012).

Molecules are shown by their SMILES.

In test [1] the test system is B16 melanoma. The test can be described thus: B16 melanoma tumor growth, tumor weight and survival in C57/Bl6 mice, i.p. treatment (Example 1). In kind it is in vivo. As to conditions: for animals surviving: After 26 days. Here is the method: Tumors were induced by injecting 1×10^6 B16 melanoma cells subcutaneously in the hind leg of C57/Bl6 syngeneic mice. Mice were randomized into 5 groups of 10 animals and treated with SCV-07 at doses of 0.001, 0.01, or 0.10 mg/kg administered daily i.p. for 3 consecutive days for 2 weeks, starting 3 days after tumor implantation. Control groups were treated with saline or dacarbazine (DTIC) at a dose of 50 mg/kg i.p. for 3 days. Tumor growth was assessed every 3 days by a caliper and tumor weight was measured upon death.
Mice were injected with B16 melanoma cells and divided into 5 groups of 10 mice each. Control mice were given injections of saline or dacarbazine (DTIC). The effects of different doses of SCV-07 were examined with respect to tumor growth rate and survival time.

Test [2] deals with B16 cell line. The test can be described thus: Apoptosis by DNA flow cytometric analysis (propidium iodide). As to conditions: propidium iodide flow cytometry. In kind it is cell-based, murine. Here is the method:
Apoptosis was assessed by DNA flow cytometric analysis. At each concentration of SCV-07, adherent cells were detached from the plates by trypsinization, pooled with the floating cells and fixed with 50% acetone:methanol 1:4 in PBS. The cells were suspended (1×10^6/ml) in PBS containing 50 μg/ml of propidium iodide (PI) and 100 KU/ml of RNase and incubated in the dark at room temperature for 30 min. The DNA content per cell was evaluated by PI fluorescence measured on a linear scale using a FACScan flow cytometer (Becton & Dickinson, San Jose, Calif.). Apoptotic cells show a diminished staining, in the red fluorescence channel, below the G0/G1 population of normal diploid cells, and are represented by a broad hypodiploid peak due to DNA fragmentation following apoptotic events. This is easily distinguishable from the narrow peak of cells with diploid DNA content. The fraction of apoptotic cells was therefore calculated by integrating the pre-G1 peak.
For orientation: In flow cytometry, cells or beads pass a laser one at a time.

Test [3] deals with spleen lymphocytes. As to conditions: cited from earlier work.
Test [4] deals with B16 cell line. Briefly: In vitro cell sensitivity: cell proliferation and viability by trypan blue dye exclusion. Format: cell-based, murine. Here is the method:
In vitro cell sensitivity studies were performed on a B16 cell line. Subconfluent melanoma cells were harvested, suspended in complete medium and seeded into 24-well plates (10^5 cells in a final volume of 2 ml/well). The cells were treated in triplicate wells for 24, 48 or 72 hr of culture with graded concentrations of SCV-07 ranging from 0.1 to 100 μg/ml. Cell proliferation and viability were determined by the trypan blue dye exclusion method by manually counting the cells with a hemocytometer.

Test [5] has as its system bone marrow cells. The note with it: cited from earlier work.
Test [6] deals with T helper cells. The note with it: previous studies; cited from earlier work.

On to `N[C@H](CCC(=O)N[C@@H](Cc1c[nH]c2ccccc12)C(=O)O)C(=O)O` [SCV-07, γ-D-glutamyl-L-tryptophan], for which the results for the animals surviving in test [1] (SCV-07 highest dose (0.10 mg/kg i.p.)) and in test [1] (SCV-07 lower doses) were 21% and “no surviving animals”, respectively. Further, the “MEAN TUMOR VOLUME” value in test [1] (DAY 10 after tumor inoculation, SCV-07 0.001 mg/kg i.p.) was found to be 540 ± 180 mm^3; in test [1] (DAY 10 after tumor inoculation, SCV-07 0.01 mg/kg i.p.), 490 ± 120 mm^3; in test [1] (DAY 10 after tumor inoculation, SCV-07 0.10 mg/kg i.p.), 420 ± 150 mm^3; in test [1] (DAY 17 after tumor inoculation, SCV-07 0.001 mg/kg i.p.), 625 ± 270 mm^3; in test [1] (DAY 17 after tumor inoculation, SCV-07 0.01 mg/kg i.p.), 581 ± 210 mm^3; in test [1] (DAY 17 after tumor inoculation, SCV-07 0.10 mg/kg i.p.), 495 ± 190 mm^3. In addition, the “MEAN TUMOR VOLUME” value is recorded as 880 ± 240 mm^3 in test [1] (DAY 24 after tumor inoculation, SCV-07 0.001 mg/kg i.p.); 720 ± 150 mm^3 in test [1] (DAY 24 after tumor inoculation, SCV-07 0.01 mg/kg i.p.); 533 ± 170 mm^3 in test [1] (DAY 24 after tumor inoculation, SCV-07 0.10 mg/kg i.p.). Moreover, the tumor growth entry in test [1] (SCV-07 0.001, 0.01, 0.10 mg/kg i.p.) is on record as “inhibited tumor growth in a dose-dependent manner”. Also, the “mean tumor weight lower” value in test [1] (highest dose of SCV-07 (0.10 mg/kg i.p.), weight upon death) came out at 35%; in test [1] (lower doses of SCV-07 (0.001, 0.01 mg/kg i.p.)), 20%. Further, the “percentage of apoptotic cell death” value in test [2] is listed as “could not evidence any significant effect”. The “Con-A-induced interleukin-2 (IL-2) production and IL-2 receptor expression” value in test [3] is recorded as “increases”. The “effect on cell growth by direct cell counts” value in test [4] (24 and 48 hrs of culture, 0.1 to 100 μg/ml) is listed as “dose-dependent inhibitory effect on cell growth”. In addition, the “effect on number of viable cells” value in test [4] (higher concentration (100 μg/ml)) was “toxic effects with a dramatic decrease in the number of viable cells”. Moreover, in test [4] (low concentration), the “effect on cell growth” value was “substantially cytostatic”. For the same compound, the “expression of Thy-1.2” value in test [5] was “stimulates”. The “IFN-γ production by thymic and spleen cells and circulating level in serum” value in test [6] was “increased”. Besides, the “T helper cell polarization” value in test [6] is given as “stimulates a shift of T helper cells towards a TH1-like immune response”.
